# Columns and labels:
# Conditions in all cases: NT-4/5 20 mg/kg s.c., Rosiglitazone 3 mg/kg p.o.
# [1] = system: db/db mice; assay: Body weight of db/db mice (Example 1); assay type: in vivo
# Protocol: Throughout the experiment period (T1-T26), daily individual body weights as well as food intake per cage were measured.
# [2] = system: db/db mice; assay: Serum transaminase (AST, ALT) activity in db/db mice (Example 1)
# Protocol: Test animals: 24 female 10-12 weeks old db/db mice (C57BL/Ks J Rj-db/db, Janvier, France), weighing in the target range of 40-50 g, were used in this study. These mice were housed in a temperature (19.5-24.5° C.) and relative humidity (45-65%) controlled room with a 12-hour light/dark cycle, with ad libitum access to filtered tap-water and irradiated pelleted laboratory chow (SAFE, France) throughout the study. Upon receipt at animal facilities, they were housed 4 per cage covered with filtered caps and at least a 5-day acclimation period was observed.
# The mice were divided into three groups of 8 mice each (groups 1-3). Each group was treated with vehicle (PBS) subcutaneously (s.c.), 3 mg/kg Rosiglitazone orally (p.o.), or 20 mg/kg NT-4/5 subcutaneously (s.c.). From day 1 to day 5 (T1-T5) and then from day 8 to day 12 (T8-T12), the mice in groups 2 and 3 were dosed once daily for 5 consecutive days, with a volume of 10 ml/kg.
# Collection of samples for analysis: One day before beginning the treatment (T0), non fasted db/db mice were weighed and blood samples were collected through the retro-orbital plexus (about 300 μL/mouse) under isoflurane anesthesia. Similarly, at day 5 (T5), day 12 (T12), day 19 (T19) and day 26 (T26), two hours after the last administration, blood samples were collected through the retro-orbital plexus under isoflurane anesthesia in non fasted mice.
# Analysis of blood samples in db/db mice: Pre- and post dose serum levels of glucose, HbA1c, cholesterol and triglycerides, insulin, and non esterified fatty acids (NEFA), as well as aspirate amino-transferase (AST) and alanine amino-transferase activities (ALT) activities, were determined at different time points, as described further herein. At each time point and for each parameter, a mean % of the effect was calculated according to the following formula: ((T final−T initial)/T initial)*100. Statistical analysis was consistent in a one-way analysis of variance followed by multiple comparisons versus the vehicle group (Dunnett's test) on final values. In case the equal variance test fails, a Kruskall-Wallis one-way analysis of variance on ranks was conducted. A difference was considered significant for p<0.05.
# Aspartate amino-transferase (AST) and alanine amino-transferase (ALT) activities were determined with an AST kit (ref. 442665, Beckman Coulter, France), an ALT kit (ref. 442620, Beckman Coulter, France), using a Synchron CX4 analyzer.
# [3] = system: db/db mice; assay: Total blood cholesterol levels in db/db mice (Example 1); assay type: in vivo
# Protocol: (§1) A difference was considered significant for p<0.05.
# The blood triglyceride level and the total blood cholesterol level were determined with a triglyceride assay kit (ref 445850, Beckman Coutler, France) and a total cholesterol kit (ref 467825, Beckman Coutler, France), respectively, using a Synchron CX4 analyzer.
# [4] = system: db/db mice; assay: Blood glucose levels in db/db mice (Example 1); assay type: in vivo
# Protocol: Administration of NT-4/5 and reference substances: Rosiglitazone (3 mg/kg, Sequoia Research Products Ltd., UK), a thiazolidinedione compound for the therapy of type 2 diabetes, was used in the present experiment as a reference. Phosphate buffer saline was used as vehicle in this experiment. NT-4/5 was obtained from Genentech.
# as §1
smiles,measurement,setting,value
"CN(CCOc1ccc(CC2SC(=O)NC2=O)cc1)c1ccccn1 (centres unmarked) [Rosiglitazone, reference compound]","body weight expressed as % of baseline, mean",[1]; Day 14,105.1 % of baseline
same,"body weight, mean",[1]; Day 14,44.5 g
same,"body weight expressed as % of baseline, mean",[1]; Day 15,104.9 % of baseline
same,"body weight, mean",[1]; Day 15,44.4 g
same,"body weight expressed as % of baseline, mean",[1]; Day 18,105.5 % of baseline
same,"body weight, mean",[1]; Day 18,44.7 g
same,"body weight expressed as % of baseline, mean",[1]; Day 19,106.0 % of baseline
same,"body weight, mean",[1]; Day 19,44.9 g
same,"body weight expressed as % of baseline, mean",[1]; Day 20,104.3 % of baseline
same,"body weight, mean",[1]; Day 20,44.2 g
same,"body weight expressed as % of baseline, mean",[1]; Day 21,105.3 % of baseline
same,"body weight, mean",[1]; Day 21,44.6 g
same,"body weight expressed as % of baseline, mean",[1]; Day 22,105.1 % of baseline
same,"body weight, mean",[1]; Day 22,44.5 g
same,"body weight expressed as % of baseline, mean",[1]; Day 25,106.7 % of baseline
same,"body weight, mean",[1]; Day 25,45.2 g
same,"body weight expressed as % of baseline, mean",[1]; Day 26,106.9 % of baseline
same,"body weight, mean",[1]; Day 26,45.3 g
same,ALT T0,"[2]; day 0, before treatment",157.5 IU/L
same,ALT/AST ratio T0,"[2]; day 0, before treatment",1.00
same,AST T0,"[2]; day 0, before treatment",185.8 IU/L
same,ALT T5,[2]; day 5,172.3 IU/L
same,ALT/AST ratio T5,[2]; day 5,1.03
same,AST T5,[2]; day 5,174.0 IU/L
same,ALT % effect T5-T0,[2]; day 5 vs day 0,12.7%
same,ALT/AST ratio % effect T5-T0,[2]; day 5 vs day 0,16.4%
same,AST % effect T5-T0,[2]; day 5 vs day 0,8.2%
same,ALT T12,[2]; day 12,222.0 IU/L
same,ALT/AST ratio T12,[2]; day 12,1.13
same,AST T12,[2]; day 12,200.5 IU/L
same,ALT % effect T12-T0,[2]; day 12 vs day 0,43.6%
same,ALT/AST ratio % effect T12-T0,[2]; day 12 vs day 0,30.4%
same,AST % effect T12-T0,[2]; day 12 vs day 0,19.9%
same,ALT T19,[2]; day 19,179.0 IU/L
same,ALT/AST ratio T19,[2]; day 19,1.31
same,AST T19,[2]; day 19,148.5 IU/L
same,ALT % effect T19-T0,[2]; day 19 vs day 0,16.6%
same,ALT/AST ratio % effect T19-T0,[2]; day 19 vs day 0,52.2%
same,AST % effect T19-T0,[2]; day 19 vs day 0,−6.9%
same,ALT T26,[2]; day 26,144.3 IU/L
same,ALT/AST ratio T26,[2]; day 26,1.05
same,AST T26,[2]; day 26,143.0 IU/L
same,ALT % effect T26-T0,[2]; day 26 vs day 0,−10.1%
same,ALT/AST ratio % effect T26-T0,[2]; day 26 vs day 0,17.1%
same,AST % effect T26-T0,[2]; day 26 vs day 0,−13.8%
same,cholesterol levels T0,"[3]; day 0, before treatment",3.27 mM
same,cholesterol levels T5,[3]; day 5,3.48 mM
same,cholesterol % effect T5-T0,[3]; day 5 vs day 0,6.5%
same,cholesterol levels T12,[3]; day 12,3.25 mM
same,cholesterol % effect T12-T0,[3]; day 12 vs day 0,−0.3%
same,cholesterol levels T19,[3]; day 19,3.01 mM
same,cholesterol % effect T19-T0,[3]; day 19 vs day 0,−7.5%
same,cholesterol levels T26,[3]; day 26,3.05 mM
same,cholesterol % effect T26-T0,[3]; day 26 vs day 0,−6.7%
same,blood glucose levels T0,"[4]; day 0, before treatment",37.56 mM
same,blood glucose % effect T5-T0,[4]; day 5 vs day 0,−40.5%
same,blood glucose levels T12,[4]; day 12,22.24 mM
same,blood glucose % effect T12-T0,[4]; day 12 vs day 0,−40.9%
same,blood glucose levels T19,[4]; day 19 (dosing stopped day 12),33.74 mM
same,blood glucose % effect T19-T0,[4]; day 19 vs day 0,−9.0%
same,blood glucose levels T26,[4]; day 26 (dosing stopped day 12),43.60 mM
same,blood glucose % effect T26-T0,[4]; day 26 vs day 0,17.5%
